Assay results: ChEMBL document CHEMBL1201862, “PubChem BioAssay data set” (2004)
Active and inactive are the calls of the source.

Tests used:
[1] = cytotoxicity toward DRD oncogenic fibroblasts, dose response, cell-based, non-viral oncogenic, luminescence (AID 1934); type: functional; details: Homo sapiens
[2] = Luminescence Cell-Based Dose Response HTS to Identify Inhibitors of 5'UTR Stem-Loop Driven Prion Protein mRNA Translation in H4 Neuroglioblastoma Cells. [Related pubchem assays: 1827 (Project Summary), 1813 (Primary HTS)]; type: functional
[3] = NIH-3T3 fibroblast cytotoxicity, dose response, cytotoxicity control, cell-based, fluorescence, Alamar Blue, secondary assay (AID 2327); type: functional;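 also: NIH-3T3 mouse fibroblasts cultured with fluconazole at 8 µg/mL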
[4] = inhibitors of PGC1a acetylation in cells, dose response, cell-based, cherry-picked samples (AID 720514); type: functional;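 also: potency may reflect raised or lowered acetylation signal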
[5] = system: BJ; assay: cytotoxicity toward Ras-transformed BJeLR fibroblasts, dose response, cell-based, alamar blue fluorescence, cherrypicked samples (AID 2631); type: functional; details: Homo sapiens;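 also: confirmatory dose-response assay in RAS-dependent BJ fibroblasts engineered with TERT, LT and ST, with cytotoxicity read by fluorescence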
[6] = system: BJ; assay: cells; type: functional, cell-based; details: Homo sapiens
[7] = microbe, parasite or virus in culture; type: functional; details: Mycobacterium tuberculosis
[8] = system: BJ; assay: cytotoxicity toward BJ-TERT fibroblasts, dose response, cell-based, RAS-independent, luminescence (AID 1933); type: functional; details: Homo sapiens
[9] = system: BJ; assay: cytotoxicity toward BJ-TERT-LT-ST fibroblasts, dose response, cell-based, RAS-independent, luminescence (AID 1935); type: functional; details: Homo sapiens;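 also: BJ fibroblasts immortalized with TERT plus LT and ST oncogenes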
[10] = target: T1, Ubiquitin-conjugating enzyme E2 N (Homo sapiens, UniProt P61088); type: functional;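 also: Dose-response confirmation in a TR-FRET assay detecting UBC13-driven polyubiquitin chain formation, inhibition measured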
T1 sequence (P61088 whole entry): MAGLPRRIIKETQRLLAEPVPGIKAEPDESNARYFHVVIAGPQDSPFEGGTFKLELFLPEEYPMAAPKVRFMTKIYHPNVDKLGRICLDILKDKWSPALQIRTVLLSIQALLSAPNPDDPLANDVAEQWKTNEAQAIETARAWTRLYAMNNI

[11] = C. albicans growth with fluconazole, confirmation, fluorescence, retest (AID 2467); type: functional, cell-based
[12] = inhibitors of firefly luciferase expression or activity, dose response, H4 neuroglioma cells, luminescence (AID 1990); type: functional, cell-based
[13] = system: INS1; assay: beta cell apoptosis inhibitors, cytokine rescue, dose response, luminescence, retest (AID 449756); type: functional, cell-based; details: Rattus norvegicus;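 also: cell death triggered by IL-1 beta plus TNF-alpha plus IFN-gamma mixture; protective hits raise ATP signal compared with cytokine alone wells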
[14] = inhibitors of SNCA 5'UTR-driven reporter translation, confirmation, H4 neuroglioma cells, luminescence (AID 1988); type: functional, cell-based
[15] = system: Escherichia coli; assay: microbe, parasite or virus in culture
[16] = target: Dual specificity tyrosine-phosphorylation-regulated kinase 1A (Rattus norvegicus, UniProt Q63470); type: biochemical, Homo sapiens
[17] = system: Vero; assay: cells; type: functional; details: Chlorocebus sabaeus
[18] = target: T2, Polyadenylate-binding protein 1 (Homo sapiens, UniProt P11940); assay: PABP1 MLLE–PAM2 interaction inhibitors, dose response, miRNA deadenylation inhibitor project, biochemical, fluorescence polarization, Cy5-PAM2 peptide, secondary (AID 602260); type: functional; details: read-out: IC50_Mean
[19] = target: Heat shock protein HSP 90-alpha (Homo sapiens, UniProt P07900); type: functional, organism-based
[20] = system: Vero; assay: Vero cell cytotoxicity, cytotoxicity control for flavivirus capping enzyme inhibitors (AID 588742); type: functional; details: Chlorocebus sabaeus
[21] = target: T2, Polyadenylate-binding protein 1; assay: PABP1 MLLE–PAM2 binding inhibitor potency, dose response, biochemical, fluorescence polarization, FITC-PAM2 peptide (AID 602259); type: functional; details: read-out: IC50_Mean
[22] = target: Delta-type opioid receptor (Homo sapiens, UniProt P41143); assay: Counterscreen for agonists of heterodimerization of the mu 1 (OPRM1) and delta 1 (OPRD1) opioid receptors: Luminescence-based cell-based high throughput dose response assay to identify agonists of OPRD1 homodimerization. [Related pubchem assays (depositor defined):AID504326, AID504355, AID504692, AID504904, AID504905]; type: functional
[23] = target: 5-hydroxytryptamine receptor 5A (Homo sapiens, UniProt P47898); assay: Counterscreen for agonists of OPRM1-OPRD1 heterodimerization: luminescence-based cell-based high throughput dose response assay to identify agonists of 5-hydroxytryptamine (serotonin) 5A receptor (HTR5A). [Related pubchem assays (depositor defined):AID504326, AID504355, AID504692, AID504904, AID504905]; type: functional
[24] = target: Mu-type opioid receptor (Homo sapiens, UniProt P35372); assay: Counterscreen for agonists of heterodimerization of the mu 1 (OPRM1) and delta 1 (OPRD1) opioid receptors: Luminescence-based cell-based high throughput dose response assay to identify agonists of OPRM1 homodimerization.; type: functional;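 also: U2OS cells expressing OPRM1 and beta-arrestin as split beta-galactosidase partners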
[25] = target: T3, Short transient receptor potential channel 4 (Mus musculus, UniProt Q9QUQ5); assay: mouse TRPC4 channel activators, dose response, cell-based, HEK293 TRPC4/mu-opioid, Fluo-4 calcium (AID 434937); type: functional
T3 sequence (Q9QUQ5 whole entry): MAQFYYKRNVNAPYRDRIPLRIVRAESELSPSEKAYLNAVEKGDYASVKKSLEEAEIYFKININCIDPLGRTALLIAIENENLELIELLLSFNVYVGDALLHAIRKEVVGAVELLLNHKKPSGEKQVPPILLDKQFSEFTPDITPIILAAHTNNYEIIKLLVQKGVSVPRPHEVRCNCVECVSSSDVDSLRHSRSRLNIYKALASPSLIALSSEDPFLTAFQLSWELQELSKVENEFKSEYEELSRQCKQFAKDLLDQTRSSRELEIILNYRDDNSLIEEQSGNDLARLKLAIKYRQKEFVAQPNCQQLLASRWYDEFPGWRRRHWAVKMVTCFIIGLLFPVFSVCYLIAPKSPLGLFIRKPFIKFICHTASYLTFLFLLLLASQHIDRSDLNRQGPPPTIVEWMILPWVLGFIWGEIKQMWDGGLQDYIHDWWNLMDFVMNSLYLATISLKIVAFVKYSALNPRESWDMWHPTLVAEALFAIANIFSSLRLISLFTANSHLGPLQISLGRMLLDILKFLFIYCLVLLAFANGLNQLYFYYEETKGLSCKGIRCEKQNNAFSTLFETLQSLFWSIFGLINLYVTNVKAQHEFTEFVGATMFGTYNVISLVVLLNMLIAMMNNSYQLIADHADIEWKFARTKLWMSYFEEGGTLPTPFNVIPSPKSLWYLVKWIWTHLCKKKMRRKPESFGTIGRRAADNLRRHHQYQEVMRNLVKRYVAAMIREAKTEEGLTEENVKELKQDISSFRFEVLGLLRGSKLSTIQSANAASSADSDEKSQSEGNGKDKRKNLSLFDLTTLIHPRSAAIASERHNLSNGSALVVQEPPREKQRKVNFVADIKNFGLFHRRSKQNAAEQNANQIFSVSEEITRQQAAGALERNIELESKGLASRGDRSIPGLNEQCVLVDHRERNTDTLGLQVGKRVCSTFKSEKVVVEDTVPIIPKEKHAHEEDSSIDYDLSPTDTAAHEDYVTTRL

T2 sequence (P11940 whole entry): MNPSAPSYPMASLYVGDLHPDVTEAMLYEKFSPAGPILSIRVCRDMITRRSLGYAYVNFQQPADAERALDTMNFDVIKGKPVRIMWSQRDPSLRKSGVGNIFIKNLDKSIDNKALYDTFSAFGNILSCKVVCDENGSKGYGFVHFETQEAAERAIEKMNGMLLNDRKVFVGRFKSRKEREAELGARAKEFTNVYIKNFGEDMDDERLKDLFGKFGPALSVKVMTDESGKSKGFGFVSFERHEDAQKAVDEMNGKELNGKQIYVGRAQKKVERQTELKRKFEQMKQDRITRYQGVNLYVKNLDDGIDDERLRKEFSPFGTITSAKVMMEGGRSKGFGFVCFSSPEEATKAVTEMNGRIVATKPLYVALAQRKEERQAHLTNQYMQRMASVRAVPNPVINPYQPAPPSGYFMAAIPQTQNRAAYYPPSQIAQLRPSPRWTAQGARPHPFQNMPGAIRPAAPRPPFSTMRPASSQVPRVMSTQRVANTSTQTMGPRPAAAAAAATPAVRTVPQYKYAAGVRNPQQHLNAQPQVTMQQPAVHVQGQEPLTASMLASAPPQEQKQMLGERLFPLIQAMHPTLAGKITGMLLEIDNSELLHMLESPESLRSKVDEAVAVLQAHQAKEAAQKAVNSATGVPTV
Delta-type opioid receptor, sequence (P41143 whole entry): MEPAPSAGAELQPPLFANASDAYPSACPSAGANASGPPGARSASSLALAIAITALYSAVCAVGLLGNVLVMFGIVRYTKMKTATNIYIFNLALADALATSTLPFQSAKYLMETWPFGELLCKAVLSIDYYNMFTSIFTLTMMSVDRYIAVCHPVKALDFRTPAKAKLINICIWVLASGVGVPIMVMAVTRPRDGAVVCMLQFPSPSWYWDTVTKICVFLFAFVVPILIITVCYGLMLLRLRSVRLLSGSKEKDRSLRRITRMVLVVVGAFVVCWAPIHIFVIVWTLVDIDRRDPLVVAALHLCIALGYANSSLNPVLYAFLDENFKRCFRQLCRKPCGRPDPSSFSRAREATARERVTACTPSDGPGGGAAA
5-hydroxytryptamine receptor 5A, sequence (P47898 whole entry): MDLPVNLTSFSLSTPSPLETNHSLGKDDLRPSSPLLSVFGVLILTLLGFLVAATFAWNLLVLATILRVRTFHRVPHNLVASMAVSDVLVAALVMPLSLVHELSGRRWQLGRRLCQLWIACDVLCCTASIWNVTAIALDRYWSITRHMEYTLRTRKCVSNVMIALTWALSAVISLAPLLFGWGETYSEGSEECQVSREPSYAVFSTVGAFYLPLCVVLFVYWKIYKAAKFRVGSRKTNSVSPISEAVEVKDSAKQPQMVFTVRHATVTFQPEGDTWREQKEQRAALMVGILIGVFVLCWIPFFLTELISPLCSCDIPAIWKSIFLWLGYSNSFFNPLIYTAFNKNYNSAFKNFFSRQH
Mu-type opioid receptor, sequence (P35372 whole entry): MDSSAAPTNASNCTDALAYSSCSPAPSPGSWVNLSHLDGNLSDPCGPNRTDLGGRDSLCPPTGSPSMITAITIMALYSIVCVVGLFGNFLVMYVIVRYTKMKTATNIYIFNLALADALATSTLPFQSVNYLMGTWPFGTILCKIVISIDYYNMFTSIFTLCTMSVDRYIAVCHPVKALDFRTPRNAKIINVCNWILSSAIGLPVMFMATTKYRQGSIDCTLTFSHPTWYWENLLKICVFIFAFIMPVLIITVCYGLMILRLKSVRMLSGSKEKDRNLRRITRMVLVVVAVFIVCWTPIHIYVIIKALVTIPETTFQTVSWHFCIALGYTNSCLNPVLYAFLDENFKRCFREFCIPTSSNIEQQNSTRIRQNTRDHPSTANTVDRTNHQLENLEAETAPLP

## CNC[C@@H](Cc1ccccc1)NC[C@@H](CC1CCCCC1)NCCCc1ccccc1
[1]
  EC50: 5.08 µM (active)
[2]
  EC50: > 120 µM (not active)
[3]
  EC50: 4.94 µM (inconclusive)
[4]
  AC50: 5.06 µM (active)
[5]
  EC50: 0.532 µM (inconclusive)
[6]
  EC50: 5.13 µM (inconclusive)
[7]
  CC50: 5.76 µM (active)
[8]
  EC50: 5 µM (active)
[9]
  EC50: 5.72 µM (inconclusive)
[10]
  IC50: > 20 µM (inactive)
[11]
  EC50: > 38 µM (not active)
[12]
  EC50: 7.68 µM (active)
[13]
  AC50: 6.49 µM (active)
[14]
  EC50: 4.29 µM (active)

## COc1cc(NC(=O)C2CC(=O)NC3=C2C(=O)CC(C)(C)C3)c(OC)cc1Cl (stereo not drawn)
[15]
  AC50: 24.1 µM (active)

## Cc1cccc(Nc2cc(C)c3c(O)cccc3n2)c1C
[16]
  AC50: 1.13 µM (active)
[10]
  IC50: > 20 µM (inactive)
[17]
  CC50: > 25 µM (active)

## COc1ccc2c3c(ccc2c1)C(O)=C(C=O)CC3
[18]
  IC50: > 66 µM (inactive)
[19]
  AC50: 2.94 µM (active)
[20]
  CC50: > 40 µM (active)
[21]
  IC50: > 66 µM (inactive)
[16]
  AC50: 0.633 µM (active)

## COc1ccc(S(=O)(=O)N2CCC(C(N)=O)CC2)cc1
[15]
  AC50: 38.3 µM (active)

## CN(C)C(CNC(=O)Cc1ccc(Br)cc1)c1ccccc1 (stereo not drawn)
[22]
  EC50: 36.1 µM (inactive)
[23]
  EC50: > 92.5 µM (inactive)
[24]
  EC50: > 92.5 µM (inactive)
[25]
  EC50: 0.105 µM (active)
